14 compounds from patent publication US12187746B2, “C26-linked rapamycin analogs as mTOR inhibitors” (Revolution Medicines, Inc., priority 2018, dated 2025) can be followed below.

The test system of test [1] is P-Akt (S473). Description: Cell based AlphaLISA assay, inhibition of P-Akt (S473) in MDA-MB-468 cells. The note with it: Homo sapiens, 4 h, 0.017-1,000 nM, two to four hours at 37° C., AlphaLisa SureFire Ultra, read-out: pIC50 for Inhibition of mTORC1 and mTORC2 Substrate Phosphorylation, p-AKT1/2/3-(S473) (converted). The method, then: (§1) Cell Based AlphaLISA Assays For Determining IC50 For Inhibition of P-Akt (S473), P-4E-BP1 (T37/46), and P-P70S6K (T389) in MDA-MB-468 Cells
(§2) mTOR Kinase Cellular Assay
(§3) To measure functional activity of mTORC1 and mTORC2 in cells the phosphorylation of 4EBP1 (Thr37/46) and P70S6K (Thr389), and AKT1/2/3 (Ser473) was monitored using AlphaLisa SureFire Ultra Kits (Perkin Elmer). […] Incubations are terminated by removal of the assay buffer and addition of lysis buffer provided with the assay kit. Samples are processed according to the manufacturer's instructions. The Alpha signal from the respective phosphoproteins is measured in duplicate using a microplate reader (Envision, Perkin-Elmer or Spectramax M5, Molecular Devices). Inhibitor concentration response curves are analyzed using normalized IC50 regression curve fitting with control based normalization.
On the technique in general: Bead proximity is the source of the signal in Alpha formats.

Test [2] has as its system P-4E-BP1 (T37/46). Description: Cell based AlphaLISA assay, inhibition of P-4E-BP1 (T37/46) in MDA-MB-468 cells. Conditions: Homo sapiens, 4 h, 0.017-1,000 nM, two to four hours at 37° C., AlphaLisa SureFire Ultra, read-out: pIC50 for Inhibition of mTORC1 and mTORC2 Substrate Phosphorylation, p-4E-BP1-(T37/46) (converted). The protocol:
as §1, §2, §3

The test system of test [3] is P-P70S6K (T389). Description: Cell based AlphaLISA assay, inhibition of P-P70S6K (T389) in MDA-MB-468 cells. Conditions: Homo sapiens, 4 h, 0.017-1,000 nM, two to four hours at 37° C., AlphaLisa SureFire Ultra, read-out: pIC50 for Inhibition of mTORC1 and mTORC2 Substrate Phosphorylation, p-P70S6K-(T389) (converted). The method, then:
as §1, §2, §3

For `CO[C@H]1C[C@@H]2CC[C@@H](C)[C@@](O)(O2)C(=O)C(=O)N2CCCC[C@H]2C(=O)O[C@H]([C@H](C)C[C@@H]2CC[C@@H](O)[C@H](OC)C2)C[C@@H](O)[C@H](C)/C=C(\C)[C@@H](O)[C@@H](OC)C(=NOCC(=O)NCc2cnc(N3CCN(c4ncc(C(=O)NCCOCCOCCOCCC(=O)N5CCc6cc(Cn7nc(-c8cnc9[nH]ccc9c8)c8c(N)ncnc87)ccc6C5)cn4)CC3)nc2)[C@H](C)C[C@H](C)/C=C/C=C/C=C/1C` [Example 21], the figures for the IC50 in test [1], in test [2] and in test [3] were above 1 µM, 0.00316 to 0.0316 µM and 0.001 to 0.01 µM, respectively.

For `CO[C@H]1C[C@@H]2CC[C@@H](C)[C@@](O)(O2)C(=O)C(=O)N2CCCC[C@H]2C(=O)O[C@H]([C@H](C)C[C@@H]2CC[C@@H](O)[C@H](OC)C2)C[C@@H](O)[C@H](C)/C=C(\C)[C@@H](O)[C@@H](OC)C(=NOCC(=O)NCc2cnc(N3CCN(C(=O)CN(C)CC(=O)NCCOCCOCCC(=O)NCCCCn4nc(-c5cnc6[nH]ccc6c5)c5c(N)ncnc54)CC3)nc2)[C@H](C)C[C@H](C)/C=C/C=C/C=C/1C` [Example 22], the IC50 in test [1] was above 1 µM; in test [2] it was 0.0316 to 1 µM; in test [3] it was 0.001 to 0.01 µM.

As for `CO[C@H]1C[C@@H]2CC[C@@H](C)[C@@](O)(O2)C(=O)C(=O)N2CCCC[C@H]2C(=O)O[C@H]([C@H](C)C[C@@H]2CC[C@@H](O)[C@H](OC)C2)C[C@@H](O)[C@H](C)/C=C(\C)[C@@H](O)[C@@H](OC)C(=NOCC(=O)N2CCc3nc(N4CCN(C(=O)CCOCCOCCOCCOCCC(=O)NCCCCn5nc(-c6ccc7oc(N)nc7c6)c6c(N)ncnc65)CC4)ncc3C2)[C@H](C)C[C@H](C)/C=C/C=C/C=C/1C` [Example 23], the IC50 in test [1] is 0.0316 to 1 µM; in test [2], 0.00316 to 0.0316 µM; in test [3], 0.001 to 0.01 µM.

For `CO[C@H]1C[C@@H]2CC[C@@H](C)[C@@](O)(O2)C(=O)C(=O)N2CCCC[C@H]2C(=O)O[C@H]([C@H](C)C[C@@H]2CC[C@@H](O)[C@H](OC)C2)C[C@@H](O)[C@H](C)/C=C(\C)[C@@H](O)[C@@H](OC)C(=NOCC(=O)NCc2cnc(N3CCN(C(=O)CN(C)CC(=O)NCCOCCOCCC(=O)NCCCCn4nc(-c5ccc6oc(N)nc6c5)c5c(N)ncnc54)CC3)nc2)[C@H](C)C[C@H](C)/C=C/C=C/C=C/1C` [Example 24], the IC50 in test [1] is 0.0316 to 1 µM; in test [2], 0.0316 to 1 µM; in test [3] it was 0.001 to 0.01 µM.

Regarding `CO[C@H]1C[C@@H]2CC[C@@H](C)[C@@](O)(O2)C(=O)C(=O)N2CCCC[C@H]2C(=O)O[C@H]([C@H](C)C[C@@H]2CC[C@@H](O)[C@H](OC)C2)C[C@@H](O)[C@H](C)/C=C(\C)[C@@H](O)[C@@H](OC)C(=NOCC(=O)NCc2cnc(N3CCN(C(=O)CN(C)CC(=O)NCCOCCOCCC(=O)N4CCc5cc(Cn6nc(-c7ccc8oc(N)nc8c7)c7c(N)ncnc76)ccc5C4)CC3)nc2)[C@H](C)C[C@H](C)/C=C/C=C/C=C/1C` [Example 25], the IC50 was above 1 µM in test [1], 0.0316 to 1 µM in test [2] and 0.001 to 0.01 µM in test [3].

As to `CO[C@H]1C[C@@H]2CC[C@@H](C)[C@@](O)(O2)C(=O)C(=O)N2CCCC[C@H]2C(=O)O[C@H]([C@H](C)C[C@@H]2CC[C@@H](O)[C@H](OC)C2)C[C@@H](O)[C@H](C)/C=C(\C)[C@@H](O)[C@@H](OC)C(=NOCC(=O)NCCOCCC(=O)N2CCc3nc(N4CCN(c5ncc(C(=O)N6CCc7cc(Cn8nc(-c9ccc%10oc(N)nc%10c9)c9c(N)ncnc98)ccc7C6)cn5)CC4)ncc3C2)[C@H](C)C[C@H](C)/C=C/C=C/C=C/1C` [Example 26], the values for the IC50 in test [1], in test [2] and in test [3] were above 1 µM, 0.00316 to 0.0316 µM and 0.001 to 0.01 µM, respectively.

`CO[C@H]1C[C@@H]2CC[C@@H](C)[C@@](O)(O2)C(=O)C(=O)N2CCCC[C@H]2C(=O)O[C@H]([C@H](C)C[C@@H]2CC[C@@H](O)[C@H](OC)C2)C[C@@H](O)[C@H](C)/C=C(\C)[C@@H](O)[C@@H](OC)C(=NOCC(=O)NCCOCCOCCOCCOCCC(=O)N2CCN(c3ncc(C(=O)NCCCCn4nc(-c5ccc6oc(N)nc6c5)c5c(N)ncnc54)cn3)CC2)[C@H](C)C[C@H](C)/C=C/C=C/C=C/1C` [Example 27]: the IC50 is 0.0316 to 1 µM in test [1], 0.00316 to 0.0316 µM in test [2] and 0.001 to 0.01 µM in test [3].

Take `CO[C@H]1C[C@@H]2CC[C@@H](C)[C@@](O)(O2)C(=O)C(=O)N2CCCC[C@H]2C(=O)O[C@H]([C@H](C)C[C@@H]2CC[C@@H](O)[C@H](OC)C2)C[C@@H](O)[C@H](C)/C=C(\C)[C@@H](O)[C@@H](OC)C(=NOCC(=O)NCCOCCOCCOCCOCCOCCOCCC(=O)N2CCC(N3CCC(C(=O)N4CCc5cc(Cn6nc(-c7ccc8oc(N)nc8c7)c7c(N)ncnc76)ccc5C4)CC3)CC2)[C@H](C)C[C@H](C)/C=C/C=C/C=C/1C` [Example 28]: the results for the IC50 in test [1], in test [2] and in test [3] were 0.0316 to 1 µM, 0.00316 to 0.0316 µM and 0.001 to 0.01 µM, respectively.

Take `CO[C@H]1C[C@@H]2CC[C@@H](C)[C@@](O)(O2)C(=O)C(=O)N2CCCC[C@H]2C(=O)O[C@H]([C@H](C)C[C@@H]2CC[C@@H](O)[C@H](OC)C2)C[C@@H](O)[C@H](C)/C=C(\C)[C@@H](O)[C@@H](OC)C(=NOCC(=O)NCc2cnc(N3CCN(C(=O)CCOCCN4CCN(c5ncc(C(=O)NCCCCn6nc(-c7ccc8oc(N)nc8c7)c7c(N)ncnc76)cn5)CC4)CC3)nc2)[C@H](C)C[C@H](C)/C=C/C=C/C=C/1C` [Example 29]: the IC50 in test [1] is 0.0316 to 1 µM; in test [2], 0.00316 to 0.0316 µM; in test [3] it was 0.001 to 0.01 µM.

For `CO[C@H]1C[C@@H]2CC[C@@H](C)[C@@](O)(O2)C(=O)C(=O)N2CCCC[C@H]2C(=O)O[C@H]([C@H](C)C[C@@H]2CC[C@@H](O)[C@H](OC)C2)C[C@@H](O)[C@H](C)/C=C(\C)[C@@H](O)[C@@H](OC)C(=NOCC(=O)NCc2cnc(N3CCN(C(=O)CCOCCN4CCN(c5ncc(C(=O)N6CCc7cc(Cn8nc(-c9ccc%10oc(N)nc%10c9)c9c(N)ncnc98)ccc7C6)cn5)CC4)CC3)nc2)[C@H](C)C[C@H](C)/C=C/C=C/C=C/1C` [Example 30], the results for the IC50 in test [1], in test [2] and in test [3] were above 1 µM, 0.00316 to 0.0316 µM and below 0.001 µM, respectively.

For `CO[C@H]1C[C@@H]2CC[C@@H](C)[C@@](O)(O2)C(=O)C(=O)N2CCCC[C@H]2C(=O)O[C@H]([C@H](C)C[C@@H]2CC[C@@H](O)[C@H](OC)C2)C[C@@H](O)[C@H](C)/C=C(\C)[C@@H](O)[C@@H](OC)C(=NOCC(=O)NCc2cnc(N3CCN(C(=O)CCOCCN4CCN(c5ncc(C(=O)N6CCc7cc(Cn8nc(-c9cnc%10[nH]ccc%10c9)c9c(N)ncnc98)ccc7C6)cn5)CC4)CC3)nc2)[C@H](C)C[C@H](C)/C=C/C=C/C=C/1C` [Example 31], the IC50 in test [1] is above 1 µM; in test [2], 0.00316 to 0.0316 µM; in test [3] it was below 0.001 µM.

Regarding `CO[C@H]1C[C@@H]2CC[C@@H](C)[C@@](O)(O2)C(=O)C(=O)N2CCCC[C@H]2C(=O)O[C@H]([C@H](C)C[C@@H]2CC[C@@H](O)[C@H](OC)C2)C[C@@H](O)[C@H](C)/C=C(\C)[C@@H](O)[C@@H](OC)C(=NOCC(=O)NCc2cnc(N3CCN(C(=O)CCOCCN4CCN(c5ncc(C(=O)N6CCC(n7nc(-c8ccc9oc(N)nc9c8)c8c(N)ncnc87)CC6)cn5)CC4)CC3)nc2)[C@H](C)C[C@H](C)/C=C/C=C/C=C/1C` [Example 32], the IC50 in test [1] was 0.00316 to 0.0316 µM; in test [2], 0.00316 to 0.0316 µM; in test [3], below 0.001 µM.

`COc1ccc(-c2ccc3ncc4c(c3c2)n(-c2ccc(N3CCN(c5ncc6c(n5)CCN(C(=O)c5cnc(N7CCN(CCOCCC(=O)N8CCN(c9ncc(CNC(=O)CON=C%10[C@H](C)C[C@H](C)/C=C/C=C/C=C(\C)[C@@H](OC)C[C@@H]%11CC[C@@H](C)[C@@](O)(O%11)C(=O)C(=O)N%11CCCC[C@H]%11C(=O)O[C@H]([C@H](C)C[C@@H]%11CC[C@@H](O)[C@H](OC)C%11)C[C@@H](O)[C@H](C)/C=C(\C)[C@@H](O)[C@H]%10OC)cn9)CC8)CC7)nc5)C6)CC3)c(C(F)(F)F)c2)c(=O)n4C)cn1` [Example 33]: the IC50 was above 1 µM in test [1], above 1 µM in test [2] and 0.01 to 1 µM in test [3].

For the compound `CO[C@H]1C[C@@H]2CC[C@@H](C)[C@@](O)(O2)C(=O)C(=O)N2CCCC[C@H]2C(=O)O[C@H]([C@H](C)C[C@@H]2CC[C@@H](O)[C@H](OC)C2)C[C@@H](O)[C@H](C)/C=C(\C)[C@@H](O)[C@@H](OC)C(=NOc2cccc(C(=O)NCc3cnc(N4CCN(C(=O)CCOCCN5CCN(c6ncc(C(=O)N7CCc8cc(Cn9nc(-c%10ccc%11oc(N)nc%11c%10)c%10c(N)ncnc%109)ccc8C7)cn6)CC5)CC4)nc3)c2)[C@H](C)C[C@H](C)/C=C/C=C/C=C/1C` [Example 35], the results for the IC50 in test [1], in test [2] and in test [3] were above 1 µM, above 1 µM and 0.01 to 1 µM, respectively.
